Like-named read-outs stand apart in the source and are kept apart here.
Legend:
PPARα = target: T1, PPARα (Rattus norvegicus, UniProt P37230); experiment: HD bDNA Assay (HD gene induction); format: cell-based
T1 construct: H4IIE rat hepatoma cell line was obtained from ATCC; host or cells: H4IIE rat hepatoma cells
T1 sequence (P37230 1-468): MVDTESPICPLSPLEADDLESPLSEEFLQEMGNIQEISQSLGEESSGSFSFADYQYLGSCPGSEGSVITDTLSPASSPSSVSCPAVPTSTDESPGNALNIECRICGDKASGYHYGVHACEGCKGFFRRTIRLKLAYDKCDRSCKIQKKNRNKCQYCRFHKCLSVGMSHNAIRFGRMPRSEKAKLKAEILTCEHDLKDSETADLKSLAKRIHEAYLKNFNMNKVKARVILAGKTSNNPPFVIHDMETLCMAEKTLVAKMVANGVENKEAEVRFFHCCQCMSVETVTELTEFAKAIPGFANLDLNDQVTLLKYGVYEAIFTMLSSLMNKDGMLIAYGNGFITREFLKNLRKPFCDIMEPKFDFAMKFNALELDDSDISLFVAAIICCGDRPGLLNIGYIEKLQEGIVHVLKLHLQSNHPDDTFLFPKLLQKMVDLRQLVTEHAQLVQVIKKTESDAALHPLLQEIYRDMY
Experimental: HD bDNA Assay H4IIE rat hepatoma cell line was obtained from ATCC. Cells were cultured in 175 cm^2 tissue culture flask or seeded in 96-well plate with (high serum content, 10% fetal bovine serum and 10% calf serum) culture medium and maintained at 37° C. and 5% CO2 throughout study. Twenty-four hours after the initial seeding of the 96-well plate by hand (approximate 100,000/well), the HD gene induction assay was initiated. Media was removed and replaced with 100 ul of low serum culture media (5% charcoal/dextran treated calf serum) containing vehicle (DMSO) or test compounds or standard. Cells returned to incubator for 24 hours culture. At the termination of the challenge, 50 ul lysis buffer with HD gene specific CE, LE, BL probes was added directly into each well to initiate the bDNA HD mRNA assay. The branched DNA assay was performed according to the manufacturer's protocol (Bayer Diagnostics; Emeryville. Calif.). At the end of the assay, the luminescence was quantitated in Dynex MLX microtiter plate luminometer. EC50's were determined by non-linear regression with a sigmoidal fit utilizing Graphpad Prism.

PPARδ = target: T2, PPARδ (Homo sapiens, UniProt Q03181); experiment: Transfection Assay for PPARδ Receptors (PPAR-Gal4 / Gal4-Luciferase reporter in HEK293 cells); format: cell-based; conditions: for PPARδ FI: fold induction, PPARδ standard: FI = 36.1; for EC50: values in square brackets
T2 construct: a Gal4-Luciferase reporter is co-transfected
T2 sequence (Q03181 171-441 limits assumed): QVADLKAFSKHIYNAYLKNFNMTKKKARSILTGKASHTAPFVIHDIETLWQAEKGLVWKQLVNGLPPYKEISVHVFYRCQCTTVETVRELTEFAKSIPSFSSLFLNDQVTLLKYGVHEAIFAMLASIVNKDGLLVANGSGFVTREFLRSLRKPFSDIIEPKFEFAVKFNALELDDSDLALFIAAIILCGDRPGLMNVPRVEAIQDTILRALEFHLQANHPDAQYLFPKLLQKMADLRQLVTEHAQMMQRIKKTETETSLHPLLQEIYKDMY
Experimental: Transfection Assay for PPARδ Receptors
HEK293 cells were grown in DMEM/F-12 Media supplemented with 10% FBS and glutamine (GIBCOBRL). The cells were co-transfected with DNA for PPAR-Gal4 receptor and Gal4-Luciferase Reporter using the DMRIE-C Reagent. On the following day, the DNA-containing medium were replaced with 5% Charcoal treated FBS growth medium. After six hours, cells were seeded in 96 well plate and incubated at 37° C. in CO2 incubator overnight. Cells were challenged by test compounds and incubated for 24 hours at 37° C. in 5% CO2 incubator. Luciferase activity was assayed using the Steady-Glo Luciferase Assay Kit from Promega. DMRIE-C Reagent was purchased from GIBCO Cat. No.10459-014. OPTI-MEM I Reduced Serum Medium was purchased from GIBCO Cat. No. 31985. Steady-Glo Luciferase Assay Kit was obtained from Promega Part# E254B.

db/db mice = experiment: Oral dosing in female db/db mice; format: in vivo; conditions: Mus musculus, 240 h, 1.0 mpk, 10 day oral dosing, % change compared to vehicle
Experimental: The compound was prepared as suspensions in 0.5% hydroxypropylmethylcellulose (Dow Chemical, Midland, Mich.). The dosing volume was 10 mL/kg of body weight. […] Body weight was measured in the mornings on Day 1, prior to dosing, and on Day 12 before bleeding. 18-24 hours after the final dose for each group, the mice were anesthetized with CO2/O2 (70:30) and bled by retro-orbital sinus puncture into micro-tubes containing clog activator and then put in ice. The serum samples were prepared by centrifugation. Serum glucose and triglycerides were determined by using COBAS Mira Plus blood chemistry analyzer (Roche Diagnostics, N.J.). Serum insulin was measured by using ALPCO insulin ELISA kit.
Statistical analysis was performed using the program Prism (Graphpad, Monrovia, Calif.) and performing one-way ANOVA with a Dunnet's multiple comparison test.

[1] = H4IIE rat hepatoma cells, 24 hours, read-out: PPARα EC50
[2] = in section F, target not named there, values match the PPARα column, read-out: EC50

| EC50 (PPARα; [1]) [nM] | PPARδ FI (PPARδ) | EC50 (PPARδ) [nM] | EC50 (PPARα; [2]) [nM] | SMILES | other results |
| --- | --- | --- | --- | --- | --- |
| 130 | 2.1 | – | – | CCN(C(=O)Nc1cccc(OC(F)(F)F)c1)C1Cc2ccc(SC(C)(C)C(=O)O)cc2C1 (centres unmarked) [Example 26, 2-{2-[1-Ethyl-3-(3-trifluoromethoxyphenyl)ureido]indan-5-ylsulfanyl}-2-methylpropionic acid] | – |
| 537 | 0.8 | – | – | CCCN(C(=O)Nc1cc(C)cc(C)c1)C1Cc2ccc(SC(C)(C)C(=O)O)cc2C1 (centres unmarked) [Example 33, 2-{2-[3-(3,5-Dimethylphenyl)-1-propylureido]indan-5-ylsulfanyl}-2-methylpropionic acid] | – |
| 323 | 8.2 | – | – | CC(C)(Sc1ccc2c(c1)CC(N(CCCC1CCCC1)C(=O)Nc1ccc(OC(F)(F)F)cc1)C2)C(=O)O (centres unmarked) [Example 28, 2-{2-[1-(3-Cyclopentylpropyl)-3-(4-trifluoromethoxyphenyl)ureido]indan-5-ylsulfanyl}-2-methylpropionic acid] | – |
| 497 | 1.5 | – | – | CCCN(C(=O)Nc1ccc(OC)cc1)C1Cc2ccc(SC(C)(C)C(=O)O)cc2C1 (centres unmarked) [Example 32, 2-{2-[3-(4-Methoxyphenyl)-1-propylureido]indan-5-ylsulfanyl}-2-methylpropionic acid] | – |
| 772 | 5.6 | – | – | CCCN(C(=O)Nc1ccc(C(F)(F)F)cc1)C1Cc2ccc(SC(C)(C)C(=O)O)cc2C1 (centres unmarked) [Example 35, 2-Methyl-2-{2-[1-propyl-3-(4-trifluoromethylphenyl)ureido]indan-5-ylsulfanyl}-propionic acid] | – |
| – | 1.4 | – | 125 | C=CCCCN(C(=O)Nc1ccc(OC(F)(F)F)cc1)C1Cc2ccc(SC(C)(C)C(=O)O)cc2C1 (centres unmarked) [Example 19, 2-Methy-2-{2-[1-pent-4-enyl-3-(4-trifluoromethoxyphenyl)ureido]indan-5-ylsulfanyl}propionic acid] | – |
| 1000 | 9.3 | – | – | CCCCCN(C(=O)Nc1ccc2ccccc2c1)C1Cc2ccc(SC(C)(C)C(=O)O)cc2C1 (centres unmarked) [Example 39, 2-Methyl-2-[2-(3-naphthalen-2-yl-1-pentylureido)indan-5-ylsulfanyl]propionic acid] | – |
| – | – | > 10000 | 27 | CCN(C(=O)Nc1ccc(OC(F)(F)F)cc1)C1CCc2cc(SC(C)(C)C(=O)O)c(Cl)cc2C1 (centres unmarked) [Example 51, 2-{6-[1-Ethyl-3-(4-trifluoromethoxyphenyl)ureido]-3-chloro-5,6,7,8-tetrahydronaphthalen-2-ylsulfanyl}-2-methylpropionic acid] | – |
| – | 1.2 | – | 123 | CCCCCCN(C(=O)Nc1ccc(SC(F)(F)F)cc1)C1Cc2ccc(SC(C)(C)C(=O)O)cc2C1 (centres unmarked) [Example 15, 2-Methyl-2-{2-[1-hexyl-3-(4-trifluoromethylsulfanylphenyl)ureido]indan-5-ylsulfanyl}propionic acid] | – |
| 1390 | 6.0 | – | – | CCCN(C(=O)Nc1ccc(OC(F)(F)F)cc1)C1CCc2ccc(SC(C)(C)C(=O)O)cc2C1 (centres unmarked) [Example 46, 2-Methyl-2-{7-[1-propyl-3-(4-trifluoromethoxyphenyl)ureido}-5,6,7,8-tetrahydronaphthalen-2-ylsulfanyl}propionic acid] | – |
| 208 | 4.5 | – | – | CCN(C(=O)Nc1ccc(OC(F)(F)F)c(Br)c1)C1Cc2ccc(SC(C)(C)C(=O)O)cc2C1 (centres unmarked) [Example 25, 2-{2-[3-(3-Bromo-4-trifluoromethoxyphenyl)-1-ethylureido]indan-5-ylsulfanyl}-2-methylpropionic acid] | – |
| 838 | 1.9 | – | – | CC(C)(Sc1ccc2c(c1)CC(N(CCCC1CCCC1)C(=O)Nc1ccccc1)C2)C(=O)O (centres unmarked) [Example 37, 2-{2-[1-(3-Cyclopentylpropyl)-3-phenylureido]indan-5-ylsulfanyl}-2-methylpropionic acid] | – |
| – | – | > 3000 | 17 | CCN(C(=O)Nc1ccc(OC(F)(F)F)cc1)C1CCc2cc(SC(C)(C)C(=O)O)c(Br)cc2C1 (centres unmarked) [Example 52, 2-{6-[1-Ethyl-3-(4-trifluoromethoxyphenyl)ureido]-3-bromo-5,6,7,8-tetrahydronaphthalen-2-ylsulfanyl}-2-methylpropionic acid] | – |
| – | – | > 3000 | 45 | CCN(C(=O)Nc1ccc(OC(F)(F)F)cc1)C1CCc2cc(SC(C)(C)C(=O)O)c(OC)cc2C1 (centres unmarked) [Example 47, 2-{6-[1-Ethyl-3-(4-trifluoromethoxyphenyl)ureido]-3-methoxy-5,6,7,8-tetrahydronaphthalen-2-ylsulfanyl}-2-methylpropionic acid] | – |
| 796 | – | – | – | CC(C)(Sc1ccc2c(c1)CC(N(CCCC(F)(F)F)C(=O)Nc1ccc(OC(F)(F)F)cc1)C2)C(=O)O (centres unmarked) [Example 36, 2-Methyl-2-{2-[1-(4,4,4-trifluorobutyl)-3-(4-trifluoromethoxyphenyl)ureido]indan-5-ylsulfanyl}propionic acid] | – |
| – | – | 873 | 42 | CCN(C(=O)Nc1ccc(OC(F)(F)F)cc1)C1CCc2cc(SC(C)(C)C(=O)O)c(C)cc2C1 (centres unmarked) [Example 53, 2-{6-[1-Ethyl-3-(4-trifluoromethoxyphenyl)ureido]-3-methyl-5,6,7,8-tetrahydronaphthalen-2-ylsulfanyl}-2-methylpropionic acid] | – |
| – | – | 1720 | 545 | CCN(C(=O)Nc1ccc(OC(F)(F)F)cc1)C1CCc2cc(SC(C)(C)C(=O)O)c(-c3ccccc3)cc2C1 (centres unmarked) [Example 55, 2-{6-[1-Ethyl-3-(4-trifluoromethoxyphenyl)ureido]-3-phenyl-5,6,7,8-tetrahydronaphthalen-2-ylsulfanyl}-2-methylpropionic acid] | – |
| 657 | – | – | – | COCCN(C(=O)Nc1ccc(SC(F)(F)F)cc1)C1Cc2ccc(SC(C)(C)C(=O)O)cc2C1 (centres unmarked) [Example 34, 2-{2-[1-(2-Methoxyethyl)-3-(4-trifluoromethylsulfanylphenyl)ureido]indan-5-ylsulfanyl}-2-methylpropionic acid] | – |
| – | – | – | 23 | CCN(C(=O)Nc1ccc(OC(F)(F)F)cc1)C1CCc2cc(SC(C)(C)C(=O)O)ccc2C1 (centres unmarked) [Example 1, 2-{6-[1-Ethyl-3-(4-trifluoromethoxyphenyl)ureido]-5,6,7,8-tetrahydronaphthalen-2-ylsulfanyl}-2-methylpropionic acid] | change in vivo at 1 mg/kg (db/db mice; read-out: Δ BW): -12%; change in vivo at 1 mg/kg (db/db mice; read-out: Δ Plasma Glucose): -73%; change in vivo at 1 mg/kg (db/db mice; read-out: Δ Plasma Insulin): -46%; change in vivo at 1 mg/kg (db/db mice; read-out: Δ Plasma TG): -52% |

| SMILES | EC50 (PPARα; [1]) [nM] | PPARδ FI (PPARδ) | EC50 (PPARδ) [nM] | EC50 (PPARα; [2]) [nM] | other results |
| --- | --- | --- | --- | --- | --- |
| CCN(C(=O)Nc1ccc(OC(F)(F)F)cc1)C1CCc2cc(OC(C)(C)C(=O)O)ccc2C1 (centres unmarked) [Example 48, 2-{6-[1-Ethyl-3-(4-trifluoromethoxyphenyl)ureido]-5,6,7,8-tetrahydronaphthalen-2-yloxy}-2-methylpropionic acid] | 14 | – | > 3000 | – | – |
